{"source": "patent US20230000835A1", "about": "“LYSINE-SPECIFIC HISTONE DEMETHYLASE INHIBITORS FOR THE TREATMENT OF MYELOPROLIFERATIVE NEOPLASMS” (Imago Biosciences, Inc., priority 2019, published 2023)", "key": {"[1]": {"test": "Non-clinical acute toxicity studies", "type": "in vivo", "conditions": "even at extremely high doses (human equivalent dose ~20-40 mg/kg)"}, "[2]": {"tested_on": "platelet count", "test": "Clinical study: platelet count titration and peripheral blood counts", "type": "in vivo, human", "source_text": "Dosing was tailored using platelet count as a biomarker for the effect of bomedemstat activity on megakaryocyte function and activity. The megakaryocytes, the cell in bone marrow and elsewhere that make platelets, are central to the pathogenesis of myelofibrosis and essential thrombocythemia. In both conditions, somatic mutations in bone marrow stem cells result in mature megakaryocytes that produce excess platelets and biologically active proteins that alter the bone marrow niche as well as spill into the circulation resulting in symptoms characteristic of these conditions such as itching and fatigue.\nDosing of such a treatment can be made more precise by titrating the dose to lower the platelet count to a specific range.\nIn the Phase 1/2a portion of the study, patients started at the presumed sub-therapeutic dose of 0.25 mg/kg/d. Dose-adjustments were made weekly (the lifespan of a human platelet) with dose-titration, either upward or downward, contingent on platelet values at the time of evaluation. Upward titrations were made in increments of 0.125 or 0.0625 mg/kg/d as shown below. Downward titrations were made in decrements of 50% of the current dose. […] The titration target platelet count expected to be associated with most efficacious therapeutic effect was ≥50,000 to <100,000 μL (50-100×10^9/L). The Phase 1/2a titration and re-challenge rules based on weekly evaluation of platelet counts are noted below in Table 1.\nA dose-response curve was subsequently generated that provided a titration algorithm to adjust dose to achieve a target platelet count of between 50,000-75,000 platelets per microliter (k/uL), devised with a view to minimizing the probability of severe thrombocytopenia. Excluding both the highest and lowest doses (total daily doses of 4 mg and 100 mg), the mean total daily dose of Compound 1 needed to achieve a platelet count in the target range was 78.3 mg (S.D. 13.8, range 53-90 mg) or the equivalent of approximately 0.7 to 1.2 mg/kg/d. Accordingly, to enable patients to reach more quickly the optimal dose while still maintaining an adequate safety margin, a new Compound 1 starting dose of 0.5 mg/kg QD was selected for all patients entering the Phase 2B portion of the study. The titration and re-challenge rules were also modified in association with this new target (Table 2).\nSubsequent to amending the dosing algorithm, a re-analysis of dosing, response and safety was conducted based on the experience with the first sixteen patients. The mean dose needed to achieve and safely maintain a patient in the range of the target platelet count (the “therapeutic dose”) was 63.8 mg/d or 0.85 mg/kg/d (assuming an average weight of 75 kg). […] In a Phase 3 study, the starting dose is anticipated to be 40 mg with one or two additional dose adjustments made in the subsequent 4-6 weeks."}, "[3]": {"tested_on": "patients with high-risk MF", "test": "Phase 1/2a clinical study: hemoglobin, transfusion status and F-cells", "type": "in vivo, human", "source_text": "(§1) A multi-center, open-label study evaluating the safety, tolerability, steady-state pharmacokinetics and pharmacodynamics of Compound 1 administered orally once daily in patients with high-risk MF, including primary myelofibrosis (PMF), post-polycythemia vera myelofibrosis (PPV-MF), and post-essential thrombocythemia myelofibrosis (PET-MF) (collectively referred to as ‘MF’) was initiated as a Phase 1/2A study, and was expanded to a Phase 2b study.\nImprovements in hemoglobin (Hb) levels and percent fetal hemoglobin containing erythrocytes (F-cells) were also observed. Of 18 patients enrolled in Phase 1b/2a, 3 presented at day 0 with Hb>10 g/dL and 15 had grade 2 or 3 anemia, with Hb<10 g/dL. Of the 3 with Hb>10 g/dL, 1 improved (defined as an increase of Hb>1 g/dL), 2 worsened (a decrease of Hb>1 g/dL) at day 84 in the course of treatment with Compound 1. Of the 15 patients with Hb<10 g/dL, 9 were transfusion-dependent, and 6 transfusion-independent. Of the 9 transfusion-dependent patients, at day 84, 1 became transfusion-independent and had improved Hb of >1 g/dL, […], and one had increased transfusion frequency."}, "[4]": {"tested_on": "patients with high-risk MF", "test": "Clinical studies in myelofibrosis: safety and tolerability (adverse events)", "type": "in vivo", "procedure": "as §1\nThis study was conducted at multiple sites. Up to 50 patients, eighteen years of age or older, with high-risk myelofibrosis were treated. The primary objectives included safety and tolerability, pharmacokinetics (PK; Phase 1/2A only) and spleen volume reduction (SVR). […] Key inclusion criteria included: high- or intermediate-2 risk myelofibrosis; per the Investigator's judgment have failed (refractory or resistant to, inadequately controlled by or intolerant of), or are not a candidate for, available approved therapy including ruxolitinib; platelet count ≥100K/μL; and, circulating blasts ≤10%.\nSafety. […] Four SAEs attributed to Compound 1 (all Grade 3), including painful splenomegaly, headache, nausea and vomiting, and heart failure. There were 139 AEs of all grades attributed to Compound 1. The most common AEs across the 31 subjects from both of the above studies were thrombocytopenia (11 subjects, 35%), anemia (3 subjects, 10%) and nausea (1, 3%). The most common grade 3/4 AEs attributed to Compound 1 were Anemia (6 subjects, 19%) and neutropenia (3 subjects, 10%)."}, "[5]": {"conditions": "day 84, of the 3 patients with Hb>10 g/dL at day 0"}, "[6]": {"conditions": "day 84, of the 9 transfusion-dependent patients"}, "[7]": {"conditions": "of the 6 transfusion-independent patients with Hb<10 g/dL"}}, "note": "Where a name gives a salt, the structure may show the parent alone.", "data": [{"smiles": "CN1CCN(C(=O)[C@H](CCCN[C@@H]2C[C@H]2c2ccc(F)cc2)NC(=O)c2ccc(-n3ccnn3)cc2)CC1", "note": "[Compound 1, N-[(2S)-5-{[(1R, 2S)-2-(4-fluorophenyl)cyclopropyl]amino}-1-(4-methylpiperazin-1-yl)-1-oxopentan-2-yl]-4-(1H-1,2,3-triazol-1-yl)benzamide, bis-tosylate salt]", "values": [{"measurement": "acute toxicity in non-clinical studies", "setting": "[1]", "value": "no evidence in non-clinical studies of acute toxicity"}, {"measurement": "effect on platelet counts", "setting": "[2]; on treatment", "value": "reduced platelet counts in all patients"}, {"measurement": "lymphocytes counts", "setting": "[2]; on treatment", "value": "unchanged"}, {"measurement": "monocyte counts", "setting": "[2]; on treatment", "value": "generally modestly elevated"}, {"measurement": "peripheral granulocyte counts", "setting": "[2]; on treatment", "value": "lower on treatment"}, {"measurement": "platelet counts after cessation of treatment", "setting": "[2]; washout", "value": "rebounded robustly"}, {"measurement": "number of patients with improved Hb (increase of Hb>1 g/dL)", "setting": "[3]; [5]", "value": 1}, {"measurement": "number of patients with worsened Hb (decrease of Hb>1 g/dL)", "setting": "[3]; [5]", "value": 2}, {"measurement": "number of patients who maintained stable transfusion frequency", "setting": "[3]; [6]", "value": 8}, {"measurement": "number of patients with increased transfusion frequency", "setting": "[3]; [6]", "value": "one"}, {"measurement": "number of patients who became transfusion-independent with improved Hb of >1 g/dL", "setting": "[3]; day 84, of the 9 transfusion-dependent patients with Hb<10 g/dL", "value": 1}, {"measurement": "number of patients improved (Hb)", "setting": "[3]; [7]", "value": 1}, {"measurement": "number of patients remained stable (Hb)", "setting": "[3]; [7]", "value": 3}, {"measurement": "number of patients worsened (became transfusion dependent or Hb drop by >1 g/dL)", "setting": "[3]; [7]", "value": 2}, {"measurement": "subjects with anemia (most common AEs)", "setting": "[4]; 31 subjects", "value": 10, "unit": "%"}, {"measurement": "subjects with grade 3/4 Anemia attributed to the drug", "setting": "[4]; 31 subjects", "value": 19, "unit": "%"}, {"measurement": "subjects with grade 3/4 neutropenia attributed to the drug", "setting": "[4]; 31 subjects", "value": 10, "unit": "%"}, {"measurement": "subjects with nausea (most common AEs)", "setting": "[4]; 31 subjects", "value": 3, "unit": "%"}, {"measurement": "subjects with thrombocytopenia (most common AEs)", "setting": "[4]; 31 subjects", "value": 35, "unit": "%"}, {"measurement": "tolerability", "setting": "[4]; heterogeneous population of patients with MF", "value": "well tolerated"}, {"measurement": "number of AEs of all grades attributed to the drug", "setting": "[4]; human, in vivo", "value": 139}, {"measurement": "number of SAEs attributed to the drug (all Grade 3)", "setting": "[4]; painful splenomegaly, headache, nausea and vomiting, heart failure", "value": "Four"}]}]}
